In patent US20130261132A1, “CALCIUM-SENSING RECEPTOR-ACTIVE COMPOUNDS” (LEO PHARMA A/S, priority 2010, published 2013):

Key:
[1] = Clearance in rat hepatocytes; format: in vitro ADME; conditions: hepatic extraction ratio; test compound 0.5 μM, 1×10^6 cells/mL, 37° C.
Method: Test compounds and 4 control compounds are tested in duplicate per run. Test compound concentration is 0.5 μM and cell concentration is 1×10^6 cells/mL in the incubation. The described method is performed by the liquid handling system Tecan RSP and is based on a 96-well format.
The liver is collected from a male Spraque-Dawley rat. One liver lobe is cut off and flushed with various buffers to loosen the cells. The cell suspension is washed and centrifuged, and the cell density is adjusted to 1.2×10^6 cells/mL with Krebs-Henseleit buffer, pH 7.4, containing 0.2% bovine serum albumin (BSA). Only cell suspensions with viability above 80% are used.
The cell suspension is pre-heated (20 min) to 37° C. Test compound is added, and the mixture is incubated for 20 minutes. Incubations are run in duplicate. Samples are withdrawn at predetermined stop times and mixed with methanol containing internal standard (IS) to terminate all enzyme activity and precipitate proteins.
(§1) The percentage of organic solvent in the incubations is less than 1%. Careful inspections of reagents are performed prior to the start of any experiment to ensure all reagents are in solution.
(§2) The 96-well plates are centrifuged. Test compound depletion, using a compound specific LC/MS/MS method, is determined.
Data analysis is performed as described above in the section “Biological assay for analysis of clearance in human liver microsomes”, with the following modifications: Intrinsic clearance (CIint) (mL/min/10^6 cells) is calculated from: […]
where c is the cell concentration in 10^6 cells/mL.
The following scaling factors for rat are used for eq. 4:
a: 120 (cells/liver weight (10^6 cells/g))
d: 0.25 (body weight (kg))
Liver blood flow in rats (for eq. 5):
(§3) Apparent clearance below approximately 25 mL/min/kg rat body weight (corresponding to an extraction ratio of approx. 33%) is considered as low clearance (high metabolic stability). Apparent intrinsic clearance above approximately 165 mL/min/kg rat body weight (corresponding to an extraction ratio of approx. 75%) is considered as high clearance (low metabolic stability).

[2] = Clearance in human liver microsomes; format: in vitro ADME; conditions: hepatic extraction ratio; test compound 0.5 μM, microsomes 0.5 mg/mL, NADPH 1 mM, 37° C.
Method: Test compound concentration is 0.5 μM, microsome concentration is 0.5 mg/mL and NADPH concentration is 1 mM in the incubation. The described method is performed by the liquid handling system Tecan RSP and is based on a 96-well format.
Control incubations with test compound without NADPH and test compound without microsomes are conducted to investigate non-CYP mediated metabolism and stability in phosphate buffer at 37° C., respectively.
The human liver microsomal suspension in phosphate buffer is mixed with NADPH. The mixture is pre-heated (7 min) to 37° C. Test compound is added, and the mixture is incubated for 30 minutes. Incubations are run in duplicate. Samples are withdrawn at predetermined stop times and mixed with methanol containing internal standard (IS) to terminate all enzyme activity and precipitate proteins. A control without NADPH (to detect problems such as nonspecific protein binding, heat instability or non-CYP mediated metabolism) and a control without microsomes (for assessing compound stability in the absence of any active enzymes) are tested.
as §1, §2
The logarithm of the peak area ratios of test compound to internal standard (IS) versus incubation time is plotted in a graph.
The rate constant (k) (min^−1) of test compound depletion is calculated from the linear part of the curve and the half-time (t1/2) in minutes can be calculated from the rate constant (Eq. 2).
Intrinsic clearance (CIint) (mL/min/mg protein) is calculated from: […]
where c is the microsomal protein concentration in mg/mL.
Conversion to apparent clearance (CIapp) (mL/min/kg) is done by Eq. 4:
CIapp=CIint×a×b/d (Eq. 4)
where a, b and d are the scaling factors for normalizing CIint to human body weight.
a: 45 (microsomal protein/liver weight (mg/g))
b: 1500 (liver weight (g))
Hepatic clearance (CIh) (mL/min/kg) based on the well-stirred model is described as followed:
CIh=(CIapp·Q)/(CIapp+Q) (Eq. 5)
where Q is the liver blood flow in mL/min/kg (20 in humans).
Dividing hepatic clearance with liver blood flow, the hepatic extraction ratio (%) can be calculated:
as §3, with “approximately 10” for “approximately 25”, “mL/min/kg human” for “mL/min/kg rat”, “to” for “to an”, “approximately 60” for “approximately 165”

| Clearance (% Eh) in rat hepatocytes [1] | Clearance (% Eh) in human liver microsomes [2] | SMILES |
| --- | --- | --- |
| B (B: 33% ≦ Eh ≦ 75%) | A (A: Eh < 33%) | C[C@@H](N[C@H]1CC[C@@H](c2ccc(OCC(=O)NC3CCNCC3)cc2)C1)c1cccc2ccccc12 [Compound 112, 2-[4-[(1R,3S)-3-[[(1R)-1-(1-Naphthyl)ethyl]amino]cyclopentyl]-phenoxy]-N-(4-piperidyl)acetamide] |
| B (B: 33% ≦ Eh ≦ 75%) | A (A: Eh < 33%) | COc1cc([C@@H](C)N[C@H]2CC[C@@H](c3ccc(OCC(=O)NCCNS(C)(=O)=O)cc3)C2)ccc1F [Compound 108, 2-[4-[(1R,3S)-3-[[(1R)-1-(4-Fluoro-3-methoxy-phenyl)ethyl]-amino]-cyclopentyl]phenoxy]-N-[2-(methanesulfonamido)ethyl]acetamide] |
| A (A: Eh < 33%) | A (A: Eh < 33%) | COc1cc([C@@H](C)N[C@H]2CC[C@@H](c3ccc(OCC(=O)NCCS(N)(=O)=O)cc3)C2)ccc1F [Compound 104, 2-[4-[(1R,3S)-3-[[(1R)-1-(4-Fluoro-3-methoxy-phenyl)ethyl]-amino]-cyclopentyl]phenoxy]-N-(2-sulfamoylethyl)acetamide] |
| B (B: 33% ≦ Eh ≦ 75%) | A (A: Eh < 33%) | COc1cc([C@@H](C)N[C@H]2CC[C@@H](c3ccc(OCC(=O)NCCNCCO)cc3)C2)ccc1F [Compound 106, 2-[4-[(1R,3S)-3-[[(1R)-1-(4-Fluoro-3-methoxy-phenyl)ethyl]-amino]-cyclopentyl]phenoxy]-N-[2-(2-hydroxyethylamino)ethyl]acetamide] |
| B (B: 33% ≦ Eh ≦ 75%) | A (A: Eh < 33%) | COc1cc([C@@H](C)N[C@H]2CC[C@@H](c3ccc(OCC(=O)N4CCN(C(C)=O)CC4)cc3)C2)ccc1F [Compound 109, 1-(4-Acetylpiperazin-1-yl)-2-[4-[(1R,3S)-3-[[(1R)-1-(4-fluoro-3-methoxy-phenyl)ethyl]amino]cyclopentyl]phenoxy]ethanone] |
| B (B: 33% ≦ Eh ≦ 75%) | A (A: Eh < 33%) | COc1cc([C@@H](C)N[C@H]2CC[C@@H](c3ccc(OCC(=O)N4CCNCC4)cc3)C2)ccc1F [Compound 103, 2-[4-[(1R,3S)-3-[[(1R)-1-(4-Fluoro-3-methoxy-phenyl)ethyl]-amino]-cyclopentyl]phenoxy]-1-piperazin-1-yl-ethanone] |
| B (B: 33% ≦ Eh ≦ 75%) | B (B: 33% ≦ Eh ≦ 75%) | COc1cc([C@@H](C)N[C@H]2CC[C@@H](c3ccc(OCC(=O)N4CCN(S(N)(=O)=O)CC4)cc3)C2)ccc1F [Compound 110, 4-[2-[4-[(1R,3S)-3-[[(1R)-1-(4-Fluoro-3-methoxy-phenyl)-ethyl]-amino]cyclopentyl]phenoxy]acetyl]piperazine-1-sulfonamide] |
